Laboratory results: patent US12037324B2, “Biarylmethyl heterocycles” (Université de Montréal, priority 2016, dated 2024)

Experiments:
Format in all cases: cell-based
AGTR1 = biological target: T1, AGTR1 (Homo sapiens, UniProt P30556); test: DiscoveRx β-arrestin2 recruitment assay (enzyme complementation, Pathunter CHO-K1 AGTR1 β-arrestin cell line); details: DiscoveRx β-arrestin2 recruitment
T1 construct: host or cells: Pathunter CHO-K1 AGTR1 β-arrestin cell line (CHO-K1)
T1 sequence (P30556 1-359): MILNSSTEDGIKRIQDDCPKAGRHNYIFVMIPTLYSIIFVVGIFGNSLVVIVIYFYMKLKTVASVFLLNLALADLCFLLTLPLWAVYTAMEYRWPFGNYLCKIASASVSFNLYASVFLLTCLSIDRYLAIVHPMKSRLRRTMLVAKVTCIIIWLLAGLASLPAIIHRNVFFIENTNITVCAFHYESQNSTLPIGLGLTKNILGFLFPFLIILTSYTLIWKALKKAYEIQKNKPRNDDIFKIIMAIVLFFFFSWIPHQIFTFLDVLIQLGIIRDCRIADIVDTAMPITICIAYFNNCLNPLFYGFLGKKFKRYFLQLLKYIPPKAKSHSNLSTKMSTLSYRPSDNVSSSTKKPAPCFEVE
Outline: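 Chemiluminescent enzyme-complementation read-out of β-arrestin2 recruitment to AGTR1 in engineered CHO-K1 cells after 90 min compound exposure at 37° C. Values are 4-parameter logistic EC50s in agonist mode, IC50s in antagonist mode, with efficacy relative to the maximal All response.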

hAT1R [1] = biological target: T2, hAT1R (Homo sapiens, UniProt P30556); test: BRET β-arrestin2 biosensor assay, higher receptor expression (hAT1R 5 ng/well), HEK293 cells; details: for EC50: High AT1R Expression
T2 sequence (P30556 1-359): T1 sequence (P30556 1-359)

hAT1R [2] = biological target: T2, hAT1R; test: BRET Gq biosensor assay, agonist response, HEK293 cells; details: section of the 42nd table directly before the BRET P63 section
Outline: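 Agonist EC50 derived from a 4-parameter fit of BRET2 ratio (GFP 515 nm/Rluc 410 nm), scaled between unstimulated control and maximal AngII response. Readings taken 5 min after compound addition at room temperature, with 2 μM coelenterazine, in HEK293 cells expressing hAT1R, Gαq-Rluc, Gβ1 and GFP-Gγ1 (transfected two days earlier).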

Structure (SMILES) | EC50 (AGTR1) | DiscoveRx β-arrestin2 Ymax (%) (AGTR1; maximal response) | BRET β-Arrestin2 High AT1R Expression Ymax (%) (hAT1R [1]) | EC50 (hAT1R [1]) | EC50 (hAT1R [2]) | DiscoveRx β-arrestin2 Ymax (%) (AGTR1)
CCCCc1nc(Cl)c(C(N)=O)n1Cc1ccc(-c2cc(-c3ccccc3)ccc2-c2nn[nH]n2)cc1 [Example 393, 1-((6′-(2H-tetrazol-5-yl)-[1,1′:3′,1″-terphenyl]-4-yl)methyl)-2-butyl-4-chloro-1H-imidazole-5-carboxamide] | 9.1 nM | 41.2% | 86.1% | 12 nM | 48.8 nM | –
CCCCc1nc(Cl)c(C(N)=O)n1Cc1ccc(-c2cc(-c3ccccc3)ccc2-c2noc(=O)[nH]2)cc1 [Example 394] | 365 nM | 59.1% | 94.9% | 37.3 nM | 76.4 nM | –
CCCc1nc(CC)c(C(=O)OCC)n1Cc1ccc(-c2cc(-c3ccccc3)ccc2-c2nn[nH]n2)cc1 [Example 395, ethyl 1-((6′-(2H-tetrazol-5-yl)-[1,1′:3′,1″-terphenyl]-4-yl)methyl)-4-ethyl-2-propyl-1H-imidazole-5-carboxylate] | 16.1 nM | 54.1% | 92.4% | 20.4 nM | 12.7 nM | –
CCCc1nc(CC)c(C(=O)NCC(F)(F)F)n1Cc1ccc(-c2cc(-c3ccccc3)ccc2-c2nn[nH]n2)cc1 [Example 397, 1-((6′-(2H-tetrazol-5-yl)-[1,1′:3′,1″-terphenyl]-4-yl)methyl)-4-ethyl-2-propyl-N-(2,2,2-trifluoroethyl)-1H-imidazole-5-carboxamide] | 78.2 nM | 46.5% | 87.9% | 80.9 nM | 124 nM | –
CCCc1nc(CC)c(C(N)=O)n1Cc1ccc(-c2cc(-c3ccccc3)ccc2-c2nn[nH]n2)cc1 [Example 398, 1-((6′-(2H-tetrazol-5-yl)-[1,1′:3′,1″-terphenyl]-4-yl)methyl)-4-ethyl-2-propyl-1H-imidazole-5-carboxamide] | 12.7 nM | 53.6% | 91.0% | 13.4 nM | 35.1 nM | –
CCCc1nc(CC)c(C(=O)O)n1Cc1ccc(-c2cc(-c3ccccc3)ccc2-c2noc(=O)[nH]2)cc1 [Example 399] | 13.4 nM | 45.8% | 92.1% | 7.2 nM | 1170 nM | –
CCCc1nc(CC)c(C(=O)O)n1Cc1ccc(-c2cc(-c3ccccc3)ccc2C(=O)O)cc1 [Example 400, 1-((6′-carboxy-[1,1′:3′,1″-terphenyl]-4-yl)methyl)-4-ethyl-2-propyl-1H-imidazole-5-carboxylic acid] | 150 nM | 40.4% | 88.3% | 172 nM | 892 nM | –
CCCc1nc(C(C)(C)O)c(C(=O)OCC)n1Cc1ccc(-c2cc(-c3ccccc3)ccc2-c2nn[nH]n2)cc1 [Example 401, ethyl 1-((6′-(2H-tetrazol-5-yl)-[1,1′:3′,1″-terphenyl]-4-yl)methyl)-4-(2-hydroxypropan-2-yl)-2-propyl-1H-imidazole-5-carboxylate] | 544 nM | 43.7% | 74.5% | 256 nM | 2240 nM | –
CCCc1nc(C(C)(C)O)c(C(=O)O)n1Cc1ccc(-c2cc(-c3ccccc3)ccc2-c2nn[nH]n2)cc1 [Example 402, sodium 1-((6′-(2H-tetrazol-5-yl)-[1,1′:3′,1″-terphenyl]-4-yl)methyl)-4-(2-hydroxypropan-2-yl)-2-propyl-1H-imidazole-5-carboxylate] | 9.9 nM | 57.0% | 77.8% | 17.9 nM | 64.9 nM | –
CCCc1nc(C(C)(C)O)c(C(=O)[O-])n1Cc1ccc(-c2cc(-c3ccccc3)ccc2-c2noc(=O)[nH]2)cc1.[Na+] [Example 403, 4-(2-hydroxypropan-2-yl)-1-((6′-(5-oxo-4,5-dihydro-1,2,4-oxadiazol-3-yl)-[1,1′:3′,1″-terphenyl]-4-yl)methyl)-2-propyl-1H-imidazole-5-carboxylic acid, Na+] | 14.2 nM | 61.4% | 88.6% | 9.2 nM | 70.9 nM | –
CCCCc1nc(Cl)c(C(=O)O)n1Cc1ccc(-c2cc(N3CC(C)(C)c4ccccc43)ccc2-c2noc(=O)[nH]2)cc1 [Example 405, 2-butyl-4-chloro-1-((5′-(3,3-dimethylindolin-1-yl)-2′-(5-oxo-4,5-dihydro-1,2,4-oxadiazol-3-yl)-[1,1′-biphenyl]-4-yl)methyl)-1H-imidazole-5-carboxylic acid] | 57.5 nM | 32.8% | 95.8% | 42 nM | 492 nM | –
CCCCc1nc(Cl)c(C(=O)O)n1Cc1ccc(-c2cc(-c3ccc(C(=O)N(C)C)cc3)ccc2-c2noc(=O)[nH]2)cc1 [Example 409] | 59.3 nM | 50.6% | 88.7% | 73.2 nM | 136 nM | –
CCCCc1ncc(-c2nnc(C)o2)n1Cc1ccc(-c2cc(-c3ccccc3)ccc2-c2nn[nH]n2)cc1 [Example 413, 2-(1-((6′-(2H-tetrazol-5-yl)-[1,1′:3′,1″-terphenyl]-4-yl)methyl)-2-butyl-1H-imidazol-5-yl)-5-methyl-1,3,4-oxadiazole] | 21.8 nM | 16.3% | 47.5% | 55.6 nM | 351 nM | –
CCCCc1ncc(C(=O)NCCO)n1Cc1ccc(-c2cc(-c3ccccc3)ccc2C(=O)O)cc1 [Example 414] | 166 nM | 21.5% | 36.4% | 505 nM | 460 nM | –
CCCCc1ncc(C(=O)O)n1Cc1ccc(-c2cc(-c3ccccc3)ccc2C(=O)O)cc1 [Example 415] | 111 nM | 29.3% | 26.8% | 206 nM | 487 nM | –
CCCCc1nc(Cl)c(C(=O)O)n1Cc1ccc(-c2cc(N3CCCC(F)(F)C3)ccc2-c2nn[nH]n2)cc1 [Example 416, 2-butyl-4-chloro-1-((5′-(3,3-difluoropiperidin-1-yl)-2′-(2H-tetrazol-5-yl)-[1,1′-biphenyl]-4-yl)methyl)-1H-imidazole-5-carboxylic acid] | 18 nM | 29.5% | 69.0% | 115 nM | > 100000 nM | –
CCCCc1nc(Cl)c(C(=O)O)n1Cc1ccc(-c2cc(-c3cccc(C(F)F)n3)ccc2-c2nn[nH]n2)cc1 [Example 423, 2-butyl-4-chloro-1-((5′-(6-(difluoromethyl)pyridin-2-yl)-2′-(2H-tetrazol-5-yl)-[1,1′-biphenyl]-4-yl)methyl)-1H-imidazole-5-carboxylic acid] | 22.9 nM | 22.8% | 73.3% | 26 nM | 25.4 nM | –
CCCCC(=O)N(Cc1ccc(-c2cc(-c3ccccc3)ccc2-c2nn[nH]n2)nc1)[C@H](C(=O)O)C(C)C [Example 430] | 33.2 nM | – | 78.9% | 70.4 nM | 275 nM | 55.2%
CCCCC(=O)N(Cc1ccc(-c2cc(-c3ccccc3)ccc2-c2nn[nH]n2)cn1)[C@H](C(=O)O)C(C)C [Example 431] | 194 nM | – | 92.7% | 1590 nM | 910 nM | 26.0%
CCCC(=O)N(Cc1ccc(-c2cc(-c3ccccc3)ccc2-c2nn[nH]n2)nc1)[C@H](C(=O)O)C(C)C [Example 432] | 40.1 nM | – | 88.4% | 163 nM | 286 nM | 42.9%
CC(C)CCC(=O)N(Cc1ccc(-c2cc(-c3ccccc3)ccc2-c2nn[nH]n2)nc1)[C@H](C(=O)O)C(C)C [Example 433] | 59.1 nM | – | 92.4% | 115 nM | 581 nM | 49.6%
CCCCC(=O)N(Cc1ccc(-c2cc(-c3ccccc3)ccc2-c2noc(=O)[nH]2)nc1)[C@H](C(=O)O)C(C)C [Example 434, (S)-3-Methyl-2-(N-((6-(4-(5-oxo-4,5-dihydro-1,2,4-oxadiazol-3-yl)-[1,1′-biphenyl]-3-yl)pyridin-3-yl)methyl)pentanamido)butanoic acid 2,2,2-trifluoroacetate] | 72 nM | – | 96.6% | 316 nM | 1280 nM | 40.9%
